{"source": "paper PMC8406801", "about": "“Naringenin Inhibits Platelet Activation and Arterial Thrombosis Through Inhibition of Phosphoinositide 3-Kinase and Cyclic Nucleotide Signaling” (Frontiers in Pharmacology, 2021)", "key": {"[1]": {"system": "washed rat platelets", "experiment": "ADP (10 μM)-induced aggregation of washed rat platelets", "assay_type": "cell-based", "conditions": "for ADP-induced platelet aggregation (control group taken as 100%): mean ± SD, n = 6", "description": "Platelet-rich plasma (PRP) was obtained, and after the addition of 100 ng/ml PGE1, platelets were pelleted at 900 × g for 10 min. […] Washed platelets were preincubated with vehicle (0.4% dimethyl sulfoxide) or various concentrations of naringenin in the presence of 2 mM CaCl2 for 5 min at 37°C, and then further stimulated by ADP (10 μM), thrombin (0.2 U/mL) or collagen (2 μg/ml). The maximum platelet aggregation rate was detected within 5 min with continuous stirring.\nPlatelet aggregation was induced by ADP using washed platelets and PRP. Washed platelets were preincubated with vehicle (containing 0.4% DMSO) or different doses (100, 200, 400, and 800 μM) of naringenin or naringin for 5 min before activation with ADP (10 μM) for 5 min.\nFIGURE 1 Effects of naringenin and naringin on platelet aggregation. Chemical structure of naringin (A) and naringenin (B). The effects of naringin (C) or naringenin (D) on PRP were measured following stimulation with 10 μmol/L ADP. Rat washed platelet aggregation performed with or without different concentrations of naringin (E) or naringenin (F) was recorded after stimulation with 10 μmol/L ADP. Similarly, Washed platelet aggregation performed with vehicle or various concentrations of naringenin was recorded after stimulation with 0.2 U/mL thrombin (G) or 2 μg/ml collagen (H). WP represents washed platelets. Data are expressed as means ± SD (n = 6), the level of aggregation obtained at 5 min with vehicle-treated samples (0 μM) was taken as 100%. *p < 0.05, **p < 0.01, ***p < 0.001 compared with the vehicle control group."}, "[2]": {"system": "cGMP", "experiment": "Measurement of cGMP in washed platelets (ELISA)", "assay_type": "cell-based, rat", "conditions": "single replicates", "description": "Washed platelets were preincubated with vehicle or various concentrations of naringenin in the presence of 2 mM CaCl2 at 37°C for 5 min and then stimulated with ADP (10 μM) for 5 min for platelet aggregation. The reaction was terminated by adding EDTA (10 mM). The platelets were boiled for 5 min at 100 °C followed by centrifugation at 13,000 × g for 5 min cAMP and cGMP levels in the supernatant were measured using cAMP or cGMP enzyme immunoassay kits (Cayman Chemicals, Ann Arbor, MI, United States).\nFIGURE 6 Naringenin elevates platelet cGMP levels and inhibits phosphodiesterase activity. The levels of cAMP (A) and cGMP (B) in washed platelets preincubated with vehicle or naringenin (100, 200, 400, and 800 μmol/L) were determined after stimulation with ADP (10 μmol/L) using ELISA kits. Similarly, the levels of cAMP (C) and cGMP (D) were determined in resting platelets incubated with naringenin (200, 400, and 800 μmol/L) or vehicle for 5 min. R represents the levels of cAMP or cGMP in resting platelets. Data are expressed as means ± SD (n = 4). *p < 0.05, ***p < 0.001 compared with the vehicle control group. The effects of naringenin on phosphodiesterase activity were measured by HPLC on the hydrolysis of cAMP (E) and cGMP (F). The level of phosphodiesterase activity obtained with vehicle control (0 μM) was taken as 100%. Data are expressed as means ± SD (n = 3). *p < 0.05, ***p < 0.001 compared with the vehicle control group."}}, "note": "“And” between values parts separate entries of the source, which are not always exact repeats. Equal values may be shown once.", "data": [{"molecule": "O=C1C[C@@H](c2ccc(O)cc2)Oc2cc(O)cc(O)c21", "note": "[Naringenin]", "values": [{"measurement": "IC50", "setting": "[1]; ADP 10 μM", "result": "~118", "unit": "µM"}, {"measurement": "reduction of aggregation of washed platelets", "setting": "[1]; ADP-induced, 100 μM", "result": 45, "unit": "%"}, {"measurement": "Aggregation (%)", "setting": "[1]; Figure 5A: washed platelets, ADP 10 μM, naringenin 200 μM alone, single replicates", "result": "38.3% and 37.5% and 34.7% and 44.0% and 29.6% and 42.4%"}, {"measurement": "IC50", "setting": "[1]; Rattus norvegicus, Platelet, ADP 10 μM", "result": "118 ± 10.4", "unit": "µM"}, {"measurement": "activity at 100 µM", "setting": "[1]; Rattus norvegicus, Platelet, washed platelets, ADP 10 μmol/L, compound 100 μM, single replicates, read-out: Aggregation % of control", "result": 50.4, "unit": "%"}, {"measurement": "activity at 400 µM", "setting": "[1]; Rattus norvegicus, Platelet, washed platelets, ADP 10 μmol/L, compound 400 μM, single replicates, read-out: Aggregation % of control", "result": 12, "unit": "%"}, {"measurement": "activity at 800 µM", "setting": "[1]; Rattus norvegicus, Platelet, washed platelets, ADP 10 μmol/L, compound 800 μM, single replicates, read-out: Aggregation % of control", "result": 6.7, "unit": "%"}, {"measurement": "level of inhibition relative to naringin", "setting": "[1]; washed platelets, ADP 10 μM, 800 μM", "result": 11, "unit": "fold"}, {"measurement": "ADP-induced platelet aggregation (control group taken as 100%)", "setting": "[1]; washed platelets, ADP 10 μM, compound 100 μM", "result": "54.5 ± 6.2", "unit": "%"}, {"measurement": "ADP-induced platelet aggregation (control group taken as 100%)", "setting": "[1]; washed platelets, ADP 10 μM, compound 800 μM", "result": "6.3 ± 1.7", "unit": "%"}, {"measurement": "Aggregation (%)", "setting": "[1]; washed platelets, ADP 10 μmol/L, compound 100 μM, raw data, single replicates", "result": "35.6% and 34.2% and 43.2% and 37.5% and 36.0% and 44.7%"}, {"measurement": "Aggregation % of control", "setting": "[1]; washed platelets, ADP 10 μmol/L, compound 100 μM, single replicates, 100 µM", "result": "48.4 % of control and 61.1 % of control and 53.1 % of control and 51.0 % of control and 63.3 % of control"}, {"measurement": "Aggregation (%)", "setting": "[1]; washed platelets, ADP 10 μmol/L, compound 200 μM, raw data, single replicates", "result": "24.7% and 26.3% and 34.7% and 21.2% and 13.9% and 29.4%"}, {"measurement": "Aggregation % of control", "setting": "[1]; washed platelets, ADP 10 μmol/L, compound 200 μM, single replicates, 200 µM", "result": "35.0 % of control and 37.2 % of control and 49.1 % of control and 30.0 % of control and 19.7 % of control and 41.6 % of control"}, {"measurement": "Aggregation (%)", "setting": "[1]; washed platelets, ADP 10 μmol/L, compound 400 μM, raw data, single replicates", "result": "8.5% and 6.2% and 6.9% and 8.1% and 8.7% and 7.6%"}, {"measurement": "Aggregation % of control", "setting": "[1]; washed platelets, ADP 10 μmol/L, compound 400 μM, single replicates, 400 µM", "result": "8.8 % of control and 9.8 % of control and 11.5 % of control and 12.3 % of control and 10.8 % of control"}, {"measurement": "Aggregation (%)", "setting": "[1]; washed platelets, ADP 10 μmol/L, compound 800 μM, raw data, single replicates", "result": "4.7% and 3.7% and 5.6% and 6.1% and 3.6% and 3.1%"}, {"measurement": "Aggregation % of control", "setting": "[1]; washed platelets, ADP 10 μmol/L, compound 800 μM, single replicates, 800 µM", "result": "5.2 % of control and 7.9 % of control and 8.6 % of control and 5.1 % of control and 4.4 % of control"}, {"measurement": "cGMP release", "setting": "[2]; ADP 10 μmol/L-stimulated platelets, 100 μM", "result": "24.01 pmol/mL and 25.36 pmol/mL and 20.40 pmol/mL and 17.36 pmol/mL"}, {"measurement": "cGMP release", "setting": "[2]; ADP 10 μmol/L-stimulated platelets, 200 μM", "result": "33.37 pmol/mL and 25.13 pmol/mL and 28.27 pmol/mL and 30.16 pmol/mL"}, {"measurement": "cGMP release", "setting": "[2]; ADP 10 μmol/L-stimulated platelets, 400 μM", "result": "35.44 pmol/mL and 31.24 pmol/mL and 34.51 pmol/mL and 37.74 pmol/mL"}, {"measurement": "cGMP release", "setting": "[2]; ADP 10 μmol/L-stimulated platelets, 800 μM", "result": "43.44 pmol/mL and 33.82 pmol/mL and 49.35 pmol/mL and 41.72 pmol/mL"}, {"measurement": "cGMP release", "setting": "[2]; resting platelets, 200 μM, 5 min", "result": "32.45 pmol/mL and 25.29 pmol/mL and 28.34 pmol/mL and 23.70 pmol/mL"}, {"measurement": "cGMP release", "setting": "[2]; resting platelets, 400 μM, 5 min", "result": "30.89 pmol/mL and 30.12 pmol/mL and 36.90 pmol/mL and 24.38 pmol/mL"}, {"measurement": "cGMP release", "setting": "[2]; resting platelets, 800 μM, 5 min", "result": "36.72 pmol/mL and 44.35 pmol/mL and 55.79 pmol/mL and 49.00 pmol/mL"}]}]}
